These are literature values, as cited in patent US20160081937A1, “TABLET WITH INCREASED DRUG LOAD OF ODANACATIB” (SANDOZ AG, priority 2013, published 2016).

For series [1] the following is noted: crystalline odanacatib.
For series [2] the following is noted: in vivo.

Turning to `CC(C)(F)C[C@H](N[C@@H](c1ccc(-c2ccc(S(C)(=O)=O)cc2)cc1)C(F)(F)F)C(=O)NC1(C#N)CC1` [Odanacatib, odanacatib], in series [1], the aqueous solubility result was “low”. Also, the “lumbar spine, hip and femoral neck BMD” value (patients treated once weekly with 20-50 mg) is given as “increases”. Moreover, where the note is “patients treated with low doses”, the “BMD at the same sites (lumbar spine, hip, femoral neck)” value was “decreases”. Further, in series [2], the oral bioavailability entry is “highly dependable on vehicle, dosage and sample preparation”.
